# Measurements published in patent US20140350081A1, “INSECT G-COUPLED RECEPTORS USEFUL AS TARGETS FOR INSECTICIDES AND COMPOUNDS AND REAGENTS IDENTIFIED USING THE SAME” (priority 2011, published 2014).
# Read-outs that look alike come from different tables or passages of the source.
# Legend:
# AaDOP2 [1] = molecular target: T1, AaDOP2 (Aedes aegypti, UniProt H6D5H2); experiment: CRELuc reporter dose-response in HEK293 cells stably expressing AaDOP2; format: cell-based; conditions: for behaviour at the AaDOP2 receptor in follow up CRCs: HEK 293-CRELuc cells, FIG. 21A
# Isdop1 [2] = molecular target: T2, Isdop1 (Ixodes scapularis, UniProt A0ACM8FJJ0); experiment: cAMP accumulation in HEK 293 cells transiently expressing Isdop1; format: cell-based; conditions: for Stimulatory response (fold-over-basal) Isdop1: 10 μM biogenic amine, 300 nM propranolol, cAMP accumulation, mean±standard error; for intracellular cAMP compared to basal, Isdop1: 10 μM agonist, transient expression; for effect on dopamine-stimulated cAMP, Isdop1: 10 μM antagonist with 1 μM dopamine
# AaDOP1 = AaDOP1 (Aedes aegypti, UniProt H6D5H1); experiment: CRELuc reporter dose-response in HEK293 cells stably expressing AaDOP1; format: cell-based; conditions: for EC50: HEK293 cells stably expressing CRELuc reporter and AaDOP1
# Isdop2 [3] = molecular target: T3, Isdop2 (Ixodes scapularis, UniProt A0ACM8DGL0); experiment: cAMP accumulation in HEK 293 cells transiently expressing Isdop2; format: cell-based; conditions: for Stimulatory response (fold-over-basal) Isdop2: 10 μM biogenic amine, 300 nM propranolol, cAMP accumulation, mean±standard error; for increase in cAMP, Isdop2: 10 μM agonist, transient expression; for effect on dopamine-stimulated cAMP, Isdop2: 10 μM antagonist with 1 μM dopamine
# AaDOP2 [4] = molecular target: T1, AaDOP2; experiment: AaDOP2 agonist screen against the LOPAC1280 library; format: cell-based; conditions: 10 μM compound; percent of response to 1 μM dihydrexidine
# Isdop1 [5] = molecular target: T2, Isdop1; experiment: CRE-Luc reporter assay, HEK cells stably expressing Isdop1; format: cell-based
# Isdop2 [6] = molecular target: T3, Isdop2; experiment: CRE-Luc reporter assay, HEK cells stably expressing Isdop2; format: cell-based
# Ae. aegypti L3 larvae [7] = experiment: whole plant or invertebrate; conditions: Aedes aegypti
# AaDOP2 [8] = molecular target: T1, AaDOP2; experiment: HTRF cAMP accumulation concentration response assay (Cisbio Dynamic 2); format: cell-based; conditions: AaDOP2 expressing cells in the presence of dopamine; No Inhibition = <10% inhibition at 3 μM test compound; read-out: IC50 ± S.E.M. (nM), HTRF cAMP assay
# [9] = test system: adult male Blatella germanica; experiment: Cockroach assay of Table 16 (title contact assay, text feeding assay); format: in vivo; conditions: 200 mM compound
# Excerpt: (§1) A series of whole organism bioassays was developed to further evaluate the toxicity of chemistries to a range of agricultural, veterinary and public health pests and non-target insects (Tables 12 and 13). These assays are designed to rapidly explore the biological activity spectrum of chemistries as well as to facilitate initial investigations of the mode of action of insecticidal compounds. Briefly, assays were developed for the German cockroach (Blatella germanica, urban pest), termite (Reticulitermes flavipes; urban pest), lone star tick (Amblyomma americana; veterinary and public health pest), soybean aphid (Aphis glycines, agricultural pest) and honeybee (Apis mellifera; beneficial, non-target insect). The assays were designed to test the toxicity and speed of kill of multiple chemistries on contact. Each of these assays was performed as a single point dose experiment in triplicate using either topical application of compound to the ventral thorax ([…]; 50-80 μg effective dose depending on compound) as is the case for our cockroach and honeybee assays, or 10 second immersion in a solution of the compound diluted in water or DMSO:EtOH to a final concentration of 100 μM. The assays were conducted in 24-well plate format with mortality assessment following incubation at 22° C. as described above. Commercial insecticides were incorporated in these assays to provide a positive control and permit initial comparative analyses. Lead chemistries identified in our in vivo screen have been evaluated in the cockroach and termite assays.
# [10] = test system: adult Reticulitermes flavipes; experiment: Termite immersion assay; format: in vivo; conditions: in vivo
# Excerpt: A series of whole organism bioassays was developed to further evaluate the toxicity of chemistries to a range of agricultural, veterinary and public health pests and non-target insects (Tables 12 and 13). These assays are designed to rapidly explore the biological activity spectrum of chemistries as well as to facilitate initial investigations of the mode of action of insecticidal compounds. Briefly, assays were developed for the German cockroach (Blatella germanica, urban pest), termite (Reticulitermes flavipes; urban pest), lone star tick (Amblyomma americana; veterinary and public health pest), soybean aphid (Aphis glycines, agricultural pest) and honeybee (Apis mellifera; beneficial, non-target insect). The assays were designed to test the toxicity and speed of kill of multiple chemistries on contact. Each of these assays was performed as a single point dose experiment in triplicate using either topical application of compound to the ventral thorax (1 μl of a […] compound solution in 1:1 v:v DMSO:EtOH vehicle; 50-80 μg effective dose depending on compound) as is the case for our cockroach and honeybee assays, or 10 second immersion in a solution of the compound diluted in water or DMSO:[…] The assays were conducted in 24-well plate format with mortality assessment following incubation at 22° C. as described above. Commercial insecticides were incorporated in these assays to provide a positive control and permit initial comparative analyses. Lead chemistries identified in our in vivo screen have been evaluated in the cockroach and termite assays.
# [11] = test system: adult male Blatella germanica; experiment: Cockroach contact assay (topical application); format: in vivo; conditions: 200 mM compound
# Excerpt: as §1
# Isdop2 [12] = molecular target: T3, Isdop2; experiment: cAMP accumulation confirmation assay, cells stably expressing Isdop2; format: cell-based
# Isdop1 [13] = molecular target: T2, Isdop1; experiment: cAMP accumulation confirmation assay, cells stably expressing Isdop1; format: cell-based
# Isdop2 [14] = molecular target: T3, Isdop2; experiment: cell-based
# AaDOP2 [15] = molecular target: T1, AaDOP2; experiment: LOPAC1280 antagonist screen in HEK-CRELuc-Aadop2 cells; format: cell-based; conditions: 10 μM compound, 300 nM dopamine, quadruplicate
# AaDOP2 [16] = molecular target: T1, AaDOP2; conditions: read-out: Affinity (Aedesdop2); values equal the Table 3 IC50 values
# Ae. aegypti L3 larvae [17] = conditions: 400 μM, three independent experiments, listed as Cis-flupenthixol
# Ae. aegypti L3 larvae [18] = experiment: Ae. aegypti L3 concentration response and time course assays; format: in vivo, Aedes aegypti
# Procedure: Briefly, chemistries were diluted to appropriate concentration in water and added to the wells of 24-well plates containing 5 L3 stage Ae. aegypti larvae to achieve a final concentration of 400, 200, 100, 50 and 25 μM in 1 ml sterile RO water. Chemistries were tested in quadruplicate at each concentration. […] Results reported here represent a minimum of three independent CRC experiments (i.e., n=3).
# [19] = 48 h, read-out: Toxicity to Aedes aegypti larvae (mortality) 48 hours, 400 μM, L3 larvae, three independent experiments
# [20] = 72 h, read-out: Toxicity to Aedes aegypti larvae (mortality) 72 hours, 400 μM, L3 larvae, three independent experiments
# [21] = read-out: % Inhibition (of response to dopamine), Isdop2 screen
# [22] = HEK293 cells stably expressing CRELuc reporter and AaDOP2, ≧10 μM = lacks intrinsic activity, read-out: EC50 values AaDOP2
# [23] = 10 μM antagonist, 1 μM dopamine
# [24] = 10 μM antagonist with 1 μM dopamine, relative to dopamine alone
# Chain of AaDOP1 (H6D5H1 entry or part of it): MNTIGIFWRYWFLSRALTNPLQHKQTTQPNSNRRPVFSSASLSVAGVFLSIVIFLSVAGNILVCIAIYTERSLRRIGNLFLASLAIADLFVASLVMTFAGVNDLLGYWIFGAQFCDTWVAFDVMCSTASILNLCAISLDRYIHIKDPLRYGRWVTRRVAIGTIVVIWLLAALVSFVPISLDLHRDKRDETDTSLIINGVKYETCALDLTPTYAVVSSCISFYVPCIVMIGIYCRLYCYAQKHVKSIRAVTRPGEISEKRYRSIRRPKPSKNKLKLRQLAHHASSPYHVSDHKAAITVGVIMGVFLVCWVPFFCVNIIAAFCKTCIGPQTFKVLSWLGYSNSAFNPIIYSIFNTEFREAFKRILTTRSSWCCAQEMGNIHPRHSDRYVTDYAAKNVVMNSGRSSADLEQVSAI
# T3 sequence (A0ACM8DGL0 entry or part of it): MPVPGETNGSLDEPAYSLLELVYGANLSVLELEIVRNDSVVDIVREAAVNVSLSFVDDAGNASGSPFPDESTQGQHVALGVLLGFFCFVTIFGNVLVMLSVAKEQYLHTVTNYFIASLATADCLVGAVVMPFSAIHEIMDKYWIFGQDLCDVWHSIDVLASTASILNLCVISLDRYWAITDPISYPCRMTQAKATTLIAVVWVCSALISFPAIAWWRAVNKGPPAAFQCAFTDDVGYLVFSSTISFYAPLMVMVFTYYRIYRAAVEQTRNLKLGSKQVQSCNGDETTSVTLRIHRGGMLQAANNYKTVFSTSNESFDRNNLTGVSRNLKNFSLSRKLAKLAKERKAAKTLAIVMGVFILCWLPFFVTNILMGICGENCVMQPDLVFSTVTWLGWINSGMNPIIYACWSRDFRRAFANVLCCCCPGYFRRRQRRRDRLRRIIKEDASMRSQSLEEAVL
# T1 sequence (H6D5H2 entry or part of it): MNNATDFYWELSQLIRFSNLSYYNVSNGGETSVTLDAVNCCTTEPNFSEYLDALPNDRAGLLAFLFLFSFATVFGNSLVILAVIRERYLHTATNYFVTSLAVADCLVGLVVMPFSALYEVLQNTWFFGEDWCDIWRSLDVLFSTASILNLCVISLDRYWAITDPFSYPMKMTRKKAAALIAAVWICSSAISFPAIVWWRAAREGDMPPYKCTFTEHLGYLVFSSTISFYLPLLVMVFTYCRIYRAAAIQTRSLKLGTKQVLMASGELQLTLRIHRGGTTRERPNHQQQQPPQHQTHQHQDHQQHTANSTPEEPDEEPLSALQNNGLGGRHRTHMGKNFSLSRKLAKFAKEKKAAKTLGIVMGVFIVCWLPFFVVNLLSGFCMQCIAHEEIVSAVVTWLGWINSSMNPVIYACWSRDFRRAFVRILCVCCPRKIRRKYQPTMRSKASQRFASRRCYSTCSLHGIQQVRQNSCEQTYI
smiles,measurement,setting,value
NCC(O)c1ccc(O)cc1 (racemic) [Octopamine],EC50,AaDOP2 [1],≥ 10000 nM
same,Stimulatory response (fold-over-basal) Isdop1,Isdop1 [2],1.01 ± 0.07 fold-over-basal
same,EC50,AaDOP1; ≧10 μM = lacks intrinsic activity,≥ 10000 nM
same,Stimulatory response (fold-over-basal) Isdop2,Isdop2 [3],1.20 ± 0.24 fold-over-basal
NC[C@H](O)c1ccc(O)c(O)c1 [Norepinephrine],behaviour at the AaDOP2 receptor in follow up CRCs,AaDOP2 [1],partial agonists
same,% of DHX,AaDOP2 [4],86%
same,Stimulatory response (fold-over-basal) Isdop1,Isdop1 [2],1.46 ± 0.10 fold-over-basal
same,EC50,Isdop1 [5],2200 ± 300 nM
same,EC50,Isdop2 [6],4300 ± 1300 nM
same,EC50,AaDOP1,760 ± 180 nM
same,Stimulatory response (fold-over-basal) Isdop2,Isdop2 [3],2.43 ± 0.65 fold-over-basal
"OCCN1CCN(CC/C=C2/c3ccccc3Sc3ccc(C(F)(F)F)cc32)CC1 [cis-(Z)-Flupenthixol, ((Z)-2-(4-(3-(2-(trifluoromethyl)-9H-thioxanthen-9-ylidene)propyl)piperazin-1-yl)ethanol)]",mortality at 400 µM,"Ae. aegypti L3 larvae [7]; 0.5 h, read-out: percent mortality 0.5 hr, 400 uM, L3 larvae, value for this scoring time",10%
same,mortality at 400 µM,"Ae. aegypti L3 larvae [7]; 1 h, read-out: percent mortality 1 hr, 400 uM, L3 larvae, per scoring time",30%
same,mortality at 400 µM,"Ae. aegypti L3 larvae [7]; 2 h, read-out: percent mortality 2 hr, 400 uM, L3 larvae, per scoring time",10%
same,mortality at 400 µM,"Ae. aegypti L3 larvae [7]; 3 h, read-out: mortality within three hours, 400 μM, L3 larvae",> 70%
same,mortality at 400 µM,"Ae. aegypti L3 larvae [7]; 3 h, read-out: percent mortality 3 hr, 400 uM, L3 larvae, per scoring time",10%
same,mortality at 400 µM,"Ae. aegypti L3 larvae [7]; 4 h, read-out: percent mortality 4 hr, 400 uM, L3 larvae, per scoring time",0%
same,mortality at 400 µM,"Ae. aegypti L3 larvae [7]; 24 h, read-out: percent mortality 24 hr, 400 uM, L3 larvae, per scoring time",0%
same,mortality at 400 µM,Ae. aegypti L3 larvae [7]; [19],100%
same,mortality at 400 µM,"Ae. aegypti L3 larvae [7]; 48 h, read-out: percent mortality 48 hr, 400 uM, L3 larvae, per scoring time",0%
same,mortality at 400 µM,"Ae. aegypti L3 larvae [7]; 72 h, read-out: Cumulative % Mortality (72 hrs), 400 uM, L3 larvae",100%
same,mortality at 400 µM,Ae. aegypti L3 larvae [7]; [20],100%
same,mortality at 400 µM,"Ae. aegypti L3 larvae [7]; 72 h, read-out: percent mortality 72 hr, 400 uM, L3 larvae, per scoring time",0%
same,IC50,AaDOP2 [8],0.35 ± 0.07 nM
same,% Mortality 24 hrs,[9],3%
same,% Mortality 48 hrs,[9],10%
same,% Mortality 72 hrs,[9],10%
same,% Mortality 120 hrs,[9],20%
same,mortality of adult termites,[10],70-100%
same,% Mortality 24 hrs,[11],10%
same,% Mortality 48 hrs,[11],10%
same,% Mortality 72 hrs,[11],10%
same,% Mortality 120 hrs,[11],20%
same,% Mortality 240 hrs,[11],20%
same,IC50,Isdop2 [12],870 nM
same,IC50,Isdop1 [13],3700 nM
same,inhibition at 10 µM,Isdop2 [14]; [21],92%
same,% of the SCH23390 effect,AaDOP2 [15],88%
same,IC50,AaDOP2 [16],20 nM
same,Toxicity to Aedes aegypti larvae (mortality) 24 hours,Ae. aegypti L3 larvae [17],100%
same,LT50,"Ae. aegypti L3 larvae [18]; 400 μM, L3 larval time course assay",54 min
same,LC50,Ae. aegypti L3 larvae [18]; Aedes aegypti,88000 nM
Oc1cc2c(c(Cl)c1O)CCNCC2c1ccccc1 (stereo not shown) [SKF 81297],EC50,AaDOP2 [1]; [22],≥ 10000 nM
same,% of DHX,AaDOP2 [4],38%
same,"intracellular cAMP compared to basal, Isdop1",Isdop1 [2],"modest, yet significant increases"
same,EC50,AaDOP1,24 ± 7 nM
same,"increase in cAMP, Isdop2",Isdop2 [3],ca. two-fold-over-basal
CNC[C@H](O)c1ccc(O)c(O)c1 [Epinephrine],behaviour at the AaDOP2 receptor in follow up CRCs,AaDOP2 [1],partial agonists
same,% of DHX,AaDOP2 [4],90%
same,EC50,Isdop1 [5],1900 ± 300 nM
same,EC50,Isdop2 [6],3500 ± 1000 nM
Oc1cc2c(cc1O)[C@H]1c3ccccc3CN[C@@H]1CC2 (racemic) [Dihydrexidine],EC50,"AaDOP2 [1]; HEK293 cells stably expressing CRELuc reporter and AaDOP2, read-out: EC50 values AaDOP2",290 ± 54 nM
same,% of DHX,AaDOP2 [4],116%
same,EC50,AaDOP1,6.9 ± 1.5 nM
Oc1cc2c(cc1O)C(c1ccccc1)CNCC2 (stereo not shown) [SKF 38393],EC50,AaDOP2 [1]; [22],≥ 10000 nM
same,% of DHX,AaDOP2 [4],< 10%
same,"intracellular cAMP compared to basal, Isdop1",Isdop1 [2],"modest, yet significant increases"
same,EC50,AaDOP1,310 ± 46 nM
same,"increase in cAMP, Isdop2",Isdop2 [3],ca. two-fold-over-basal
"CC(C)(C)[C@]1(O)CCN2CC3c4ccccc4CCc4cccc(c43)[C@@H]2C1 (single isomer, unassigned; (+)) [(+)-Butaclamol, 3-(1,1-dimethylethyl)-2,3,4,4a,8,9,13b,14-octahydro-1H-benzo[6,7]cyclohepta[1,2,3-de]pyrido[2,1-a]isoquinolin-3-ol]","effect on dopamine-stimulated cAMP, Isdop1",Isdop1 [2],did not cause a similar response
same,IC50,Isdop2 [12],320 nM
same,IC50,Isdop1 [13],3500 nM
same,"effect on dopamine-stimulated cAMP, Isdop2",Isdop2 [3],antagonistic effects
"CN1CCc2cc(Cl)c(O)cc2C(c2ccccc2)C1 (stereo not shown) [SCH23390, 8-chloro-3-methyl-5-phenyl-1,2,4,5-tetrahydro-3-benzazepin-7-ol]",inhibition of dopamine-mediated stimulation of AaDOP2,AaDOP2 [1]; [23],robustly inhibited
same,mortality at 400 µM,"Ae. aegypti L3 larvae [7]; 24 h, read-out: Toxicity to Aedes aegypti larvae (mortality) 24 hours, 400 μM, L3 larvae, three independent experiments",3%
same,mortality at 400 µM,Ae. aegypti L3 larvae [7]; [19],23%
same,mortality at 400 µM,Ae. aegypti L3 larvae [7]; [20],47%
same,IC50,AaDOP2 [8],1300 nM
same,"effect on dopamine-stimulated cAMP, Isdop1",Isdop1 [2],significant reduction in levels of intracellular cAMP
same,inhibition of luciferase activity Isdop1,Isdop1 [5]; [24],74%
same,effect on constitutive activity of Isdop1,"Isdop1 [5]; antagonist alone, CRE-Luc",inhibition of the constitutive activity of Isdop1 was observed
same,IC50,Isdop2 [12],120 nM
same,IC50,Isdop1 [13],57 nM
same,inhibition at 10 µM,Isdop2 [14]; [21],77%
same,inhibition at 10 µM,Isdop2 [14]; read-out: average inhibitory effect of antagonist control across all sixteen plates,86 ± 6%
same,% of the SCH23390 effect,AaDOP2 [15],83%
same,inhibition of luciferase activity Isdop2,Isdop2 [6]; [24],69%
same,inhibition of dopamine-mediated stimulation of AaDOP1,AaDOP1; [23],robustly inhibited
same,"effect on dopamine-stimulated cAMP, Isdop2",Isdop2 [3],antagonistic effects
